# Source: patent publication US10597388B2, “Pyridazinone herbicides” (FMC CORPORATION, priority 2014, dated 2020)
# What was measured:
# Experiment in all cases: Test D controlled growth environment herbicide test, pre- and postemergence
# Assay type in all cases: in vivo
# [1] = tested on: bromegrass, downy (downy bromegrass, Bromus tectorum)
# In short: (§1)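 Pre-emergence: seeds sown in silt loam soil were sprayed with compound in a non-phytotoxic solvent mix containing surfactant. Post-emergence: plants at 2 to 18 cm (1- to 4-leaf stage) in peat moss/vermiculite medium got the same formulation. Visual 0–100 rating versus controls after 14 to 21 d.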
# [2] = tested on: bluegrass (annual bluegrass, Poa annua)
# In short: as §1
# [3] = tested on: oilseed rape (Brassica napus)
# In short: as §1
# [4] = tested on: radish, wild (wild radish, Raphanus raphanistrum)
# In short: as §1
# [5] = tested on: oat, wild (wild oat, Avena fatua)
# In short: as §1
# [6] = tested on: canarygrass (Phalaris minor)
# In short: as §1
# [7] = tested on: mustard, wild (wild mustard, Sinapis arvensis)
# In short: as §1
# [8] = tested on: chamomile (scentless chamomile, Matricaria inodora)
# In short: as §1
# [9] = tested on: wheat, spring (spring wheat, Triticum aestivum)
# In short: as §1
# [10] = tested on: field violet (Viola arvensis)
# In short: as §1
# [11] = tested on: buckwheat, wild (wild buckwheat, Polygonum convolvulus)
# In short: as §1
# [12] = tested on: field poppy (Papaver rhoeas)
# In short: as §1
# [13] = tested on: Russian thistle (Salsola kali)
# In short: as §1
# [14] = Postemergence, 31 g ai/ha, scale 0 to 100 (0 no effect, 100 complete control)
# [15] = Postemergence, 125 g ai/ha, visual rating on scale 0 (no effect) to 100 (complete control), 14 to 21 d
# [16] = Postemergence, 250 g ai/ha, scale 0 to 100 (0 no effect, 100 complete control)
# [17] = Preemergence, 62 g ai/ha, scale 0 to 100 (0 no effect, 100 complete control)
# [18] = Preemergence, 125 g ai/ha, scale 0 to 100 (0 no effect, 100 complete control)
# [19] = Preemergence, 250 g ai/ha, scale 0 to 100 (0 no effect, 100 complete control)
# [20] = postemergence, 62 g ai/ha, scale 0 to 100, 0 no effect, 100 complete control
structure (smiles),measurement,setting,value
CC(=O)Oc1c(Br)nn(C)c(=O)c1-c1c(C)ccc2ccccc12 [Compound 129],"Bromegrass, Downy plant response rating",[1]; [14],25
same,"Plant response rating, Bromegrass, Downy",[1]; [15],65
same,"Plant response rating, Bromegrass, Downy",[1]; [16],80
same,"Plant response rating (scale of 0 to 100), Bromegrass, Downy","[1]; Preemergence, 31 g ai/ha",15
same,"Plant response rating, Bromegrass, Downy",[1]; [17],15
same,"Plant response rating, Bromegrass, Downy",[1]; [18],65
same,"Plant response rating, Bromegrass, Downy",[1]; [19],80
same,"Plant response rating, Bromegrass, Downy",[1]; [20],40
same,Bluegrass plant response rating,[2]; [14],10
same,"Plant response rating, Bluegrass",[2]; [15],20
same,"Plant response rating, Bluegrass",[2]; [16],30
same,"Plant response rating (scale of 0 to 100), Bluegrass","[2]; Preemergence, 31 g ai/ha",0
same,"Plant response rating, Bluegrass",[2]; [17],10
same,"Plant response rating, Bluegrass",[2]; [18],25
same,"Plant response rating, Bluegrass",[2]; [19],60
same,"Plant response rating, Bluegrass",[2]; [20],15
same,Oilseed Rape plant response rating,[3]; [14],5
same,"Plant response rating, Oilseed Rape",[3]; [15],15
same,"Plant response rating, Oilseed Rape",[3]; [16],70
same,"Plant response rating (scale of 0 to 100), Oilseed Rape","[3]; Preemergence, 31 g ai/ha",0
same,"Plant response rating (scale of 0 to 100), Oilseed Rape","[3]; Preemergence, 62 g ai/ha",15
same,"Plant response rating, Oilseed Rape",[3]; [18],55
same,"Plant response rating, Oilseed Rape",[3]; [19],100
same,"Plant response rating, Oilseed Rape",[3]; [20],5
same,"Radish, Wild plant response rating",[4]; [14],60
same,"Plant response rating, Radish, Wild",[4]; [15],80
same,"Plant response rating, Radish, Wild",[4]; [16],98
same,"Plant response rating (scale of 0 to 100), Radish, Wild","[4]; Preemergence, 31 g ai/ha",80
same,"Plant response rating (scale of 0 to 100), Radish, Wild","[4]; Preemergence, 62 g ai/ha",100
same,"Plant response rating, Radish, Wild",[4]; [18],100
same,"Plant response rating, Radish, Wild",[4]; [19],100
same,"Plant response rating, Radish, Wild",[4]; [20],75
same,"Oat, Wild plant response rating",[5]; [14],90
same,"Plant response rating, Oat, Wild",[5]; [15],95
same,"Plant response rating, Oat, Wild",[5]; [16],100
same,"Plant response rating (scale of 0 to 100), Oat, Wild","[5]; Preemergence, 31 g ai/ha",75
same,"Plant response rating (scale of 0 to 100), Oat, Wild","[5]; Preemergence, 62 g ai/ha",75
same,"Plant response rating, Oat, Wild",[5]; [18],90
same,"Plant response rating, Oat, Wild",[5]; [19],100
same,"Plant response rating, Oat, Wild",[5]; [20],90
same,Canarygrass plant response rating,[6]; [14],30
same,"Plant response rating, Canarygrass",[6]; [15],75
same,"Plant response rating, Canarygrass",[6]; [16],80
same,"Plant response rating (scale of 0 to 100), Canarygrass","[6]; Preemergence, 31 g ai/ha",5
same,"Plant response rating (scale of 0 to 100), Canarygrass","[6]; Preemergence, 62 g ai/ha",15
same,"Plant response rating, Canarygrass",[6]; [18],60
same,"Plant response rating, Canarygrass",[6]; [19],90
same,"Plant response rating, Canarygrass",[6]; [20],55
same,"Mustard, Wild plant response rating",[7]; [14],80
same,"Plant response rating, Mustard, Wild",[7]; [15],98
same,"Plant response rating, Mustard, Wild",[7]; [16],100
same,"Plant response rating (scale of 0 to 100), Mustard, Wild","[7]; Preemergence, 31 g ai/ha",75
same,"Plant response rating (scale of 0 to 100), Mustard, Wild","[7]; Preemergence, 62 g ai/ha",100
same,"Plant response rating, Mustard, Wild",[7]; [18],100
same,"Plant response rating, Mustard, Wild",[7]; [19],100
same,"Plant response rating, Mustard, Wild",[7]; [20],80
same,Chamomile plant response rating,[8]; [14],100
same,"Plant response rating, Chamomile",[8]; [15],100
same,"Plant response rating, Chamomile",[8]; [16],100
same,"Plant response rating (scale of 0 to 100), Chamomile","[8]; Preemergence, 31 g ai/ha",100
same,"Plant response rating (scale of 0 to 100), Chamomile","[8]; Preemergence, 62 g ai/ha",100
same,"Plant response rating, Chamomile",[8]; [18],100
same,"Plant response rating, Chamomile",[8]; [19],100
same,"Plant response rating, Chamomile",[8]; [20],98
same,"Wheat, Spring plant response rating",[9]; [14],25
same,"Plant response rating, Wheat, Spring",[9]; [15],50
same,"Plant response rating, Wheat, Spring",[9]; [16],70
same,"Plant response rating (scale of 0 to 100), Wheat, Spring","[9]; Preemergence, 31 g ai/ha",25
same,"Plant response rating (scale of 0 to 100), Wheat, Spring","[9]; Preemergence, 62 g ai/ha",50
same,"Plant response rating, Wheat, Spring",[9]; [18],60
same,"Plant response rating, Wheat, Spring",[9]; [19],75
same,"Plant response rating, Wheat, Spring",[9]; [20],35
same,Field Violet plant response rating,[10]; [14],65
same,"Plant response rating, Field Violet",[10]; [15],70
same,"Plant response rating, Field Violet",[10]; [16],75
same,"Plant response rating (scale of 0 to 100), Field Violet","[10]; Preemergence, 31 g ai/ha",85
same,"Plant response rating (scale of 0 to 100), Field Violet","[10]; Preemergence, 62 g ai/ha",85
same,"Plant response rating, Field Violet",[10]; [18],85
same,"Plant response rating, Field Violet",[10]; [19],100
same,"Plant response rating, Field Violet",[10]; [20],70
same,"Buckwheat, Wild plant response rating",[11]; [14],100
same,"Plant response rating, Buckwheat, Wild",[11]; [15],100
same,"Plant response rating, Buckwheat, Wild",[11]; [16],100
same,"Plant response rating (scale of 0 to 100), Buckwheat, Wild","[11]; Preemergence, 31 g ai/ha",0
same,"Plant response rating, Buckwheat, Wild",[11]; [17],30
same,"Plant response rating, Buckwheat, Wild",[11]; [18],85
same,"Plant response rating, Buckwheat, Wild",[11]; [19],85
same,"Plant response rating, Buckwheat, Wild",[11]; [20],100
same,Field Poppy plant response rating,[12]; [14],70
same,"Plant response rating, Field Poppy",[12]; [15],80
same,"Plant response rating, Field Poppy",[12]; [16],98
same,"Plant response rating (scale of 0 to 100), Field Poppy","[12]; Preemergence, 31 g ai/ha",90
same,"Plant response rating (scale of 0 to 100), Field Poppy","[12]; Preemergence, 62 g ai/ha",98
same,"Plant response rating, Field Poppy",[12]; [18],100
same,"Plant response rating, Field Poppy",[12]; [19],100
same,"Plant response rating, Field Poppy",[12]; [20],75
same,Russian Thistle plant response rating,[13]; [14],70
same,"Plant response rating, Russian Thistle",[13]; [15],85
same,"Plant response rating, Russian Thistle",[13]; [16],90
same,"Plant response rating (scale of 0 to 100), Russian Thistle","[13]; Preemergence, 31 g ai/ha",10
same,"Plant response rating (scale of 0 to 100), Russian Thistle","[13]; Preemergence, 62 g ai/ha",50
same,"Plant response rating, Russian Thistle",[13]; [18],100
same,"Plant response rating, Russian Thistle",[13]; [19],100
same,"Plant response rating, Russian Thistle",[13]; [20],80
